We go through 17 molecules from patent US11753407B2, “Compounds for treating spinal muscular atrophy” (PTC Therapeutics, Inc., priority 2012, dated 2023).

Some results are limits rather than exact numbers.

As a reminder, the melting point is the temperature of the solid-liquid transition.

The test system of data set [1] is SMN2 minigene mRNA (SMN2-A minigene) in HEK293H cells. The data set can be described thus: SMN2 minigene mRNA splicing RT-qPCR assay in cultured cells. The following applies: Homo sapiens, HEK293-H; concentration increasing full length SMN2 mRNA 1.5-fold relative to vehicle-treated cells; HEK293H cells with SMN2-A minigene, 24 hours, 7-point concentration data; read-out: EC1.5x for production of full length SMN2 mRNA. Type of data set: cell-based, human. Put shortly:
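Potency reflects the concentration that lifts full-length SMN2 minigene mRNA 1.5-fold above vehicle in stably transfected HEK293H cells after 24 h of treatment. Transcript abundance came from RT-qPCR as (1+E)^−Ct, normalized to GAPDH; endogenous SMN1/SMN2 are not detected.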
For orientation: Real-time PCR tracks product formation cycle by cycle.

Data set [2] relates to Smn protein in SMA patient fibroblast cells (GM03813). Put plainly: Smn protein assay in cultured cells (SMN HTRF). The following applies: SMA patient fibroblast cells, 48 hours; for EC1.5x for Smn protein expression: 7-point concentration curve, SMN HTRF, concentration producing 1.5 times Smn protein vs DMSO vehicle control; for maximum fold (Fold) increase of Smn protein: 7-point concentration data, fold relative to vehicle control. The format is cell-based, human. Put shortly:
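Smn protein abundance in treated SMA fibroblasts was measured by HTRF after 48 h compound exposure. The reported EC1.5× is the concentration producing 1.5 times vehicle Smn levels.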

Molecule `CCN1CC=C(c2ccc3nc(-c4ccc5c(cnn5C)c4)cc(=O)n3c2)CC1` [Compound 463, 7-(1-ethyl-1,2,3,6-tetrahydropyridin-4-yl)-2-(1-methyl-1H-indazol-5-yl)-4H-pyrido[1,2-a]pyrimidin-4-one] showed a melting point of 172 to 174 °C. The EC (1.5-fold increase) in data set [1] is < 0.1 µM. Moreover, in data set [2], the “EC1.5x for Smn protein expression” value is “*** (an EC1.5× between >0.3 μM and ≤1 μM is indicated by three stars (***))”; the “maximum fold (Fold) increase of Smn protein” value (from here on “maximum fold (Fold) increase”) was “***** (a fold increase >1.65 is indicated by five stars (*****))”.

On to `CNCC1CCN(c2ccc3nc(-c4ccc(OC)c(F)c4)cc(=O)n3c2)CC1` [Compound 223, 2-(3-fluoro-4-methoxyphenyl)-7-{4-[(methylamino)methyl]piperidin-1-yl}-4H-pyrido[1,2-a]pyrimidin-4-one], for which the melting point is 163 to 170 °C. For the same molecule, the EC (1.5-fold increase) in data set [1] lay in the range of 0.3 to 1 µM. For the same molecule, in data set [2], the “maximum fold (Fold) increase” value is “*** (a fold increase between >1.35 and ≤1.5 is indicated by three stars (***))”.

`CCc1nc(C)cn2nc(-c3cc(=O)n4cc(N5CCN(CCO)CC5)ccc4n3)cc12` [Compound 549, 2-(4-ethyl-6-methylpyrazolo[1,5-a]pyrazin-2-yl)-7-[4-(2-hydroxyethyl)piperazin-1-yl]-4H-pyrido[1,2-a]pyrimidin-4-one] had a melting point of 240 to 242 °C. Further, the EC (1.5-fold increase) in data set [1] was < 0.1 µM. In data set [2], the “EC1.5x for Smn protein expression” value is recorded as “**** (an EC1.5x≤0.3 μM is indicated by four stars (****))” and the “maximum fold (Fold) increase” value was “***** (a fold increase >1.65 is indicated by five stars (*****))”.

On to `Cc1cn2cc(-c3cc(=O)n4cc(N5C[C@@H](C)N[C@@H](C)C5)ccc4n3)cc(C(F)(F)F)c2n1` [Compound 736, 7-[(3R,5S)-3,5-dimethylpiperazin-1-yl]-2-[2-methyl-8-(trifluoromethyl)imidazo[1,2-a]pyridin-6-yl]-4H-pyrido[1,2-a]pyrimidin-4-one], for which the melting point is 293 to 296 °C. Moreover, the EC (1.5-fold increase) in data set [1] is < 0.1 µM. Besides, in data set [2], the “EC1.5x for Smn protein expression” value is listed as “**** (an EC1.5x≤0.3 μM is indicated by four stars (****))” and the “maximum fold (Fold) increase” value is on record as “***** (a fold increase >1.65 is indicated by five stars (*****))”.

`CN(C)c1ccc(-c2cc(=O)n3cc(N4CCNCC4)ccc3n2)cc1` [Compound 53, 2-[4-(dimethylamino)phenyl]-7-(piperazin-1-yl)-4H-pyrido[1,2-a]pyrimidin-4-one] displayed a melting point of 211 to 215 °C. For the same molecule, in data set [1], the EC (1.5-fold increase) lay within 1 to 3 µM. Also, in data set [2], the “maximum fold (Fold) increase” value is listed as “* (A maximum fold increase of ≤1.2 is indicated by one star (*))”.

Consider `COc1ccc(-c2cc(=O)n3cc(N4CCNCC4)c(C)cc3n2)cc1OC` [Compound 360, 2-(3,4-dimethoxyphenyl)-8-methyl-7-(piperazin-1-yl)-4H-pyrido[1,2-a]pyrimidin-4-one], for which the melting point was 161 to 169 °C. In addition, in data set [1], the EC (1.5-fold increase) fell in the range of 1 to 3 µM. Also, the “maximum fold (Fold) increase” value in data set [2] was “* (A maximum fold increase of ≤1.2 is indicated by one star (*))”.

As to `CN(C)c1ccc(-c2cc(=O)n3cc(C4=CCNCC4)ccc3n2)cn1` [Compound 444, 2-[6-(dimethylamino)pyridin-3-yl]-7-(1,2,3,6-tetrahydropyridin-4-yl)-4H-pyrido[1,2-a]pyrimidin-4-one], the melting point was in the range of 255 to 257 °C. In data set [1], the EC (1.5-fold increase) lay in the range of 0.3 to 1 µM. Also, in data set [2], the “EC1.5x for Smn protein expression” value is “** (an EC1.5× between >1 μM and ≤3 μM is indicated by two stars (**))”; the “maximum fold (Fold) increase” value is “*** (a fold increase between >1.35 and ≤1.5 is indicated by three stars (***))”.

`COc1cnc(-c2cc(=O)n3cc(N4CCNCC4)ccc3n2)cc1OC` [Compound 199, 2-(4,5-dimethoxypyridin-2-yl)-7-(piperazin-1-yl)-4H-pyrido[1,2-a]pyrimidin-4-one] gave a melting point of 207 to 209 °C. Besides, the EC (1.5-fold increase) in data set [1] is 0.3 to 1 µM. Also, in data set [2], the “EC1.5x for Smn protein expression” value was “** (an EC1.5× between >1 μM and ≤3 μM is indicated by two stars (**))”; the “maximum fold (Fold) increase” value is “**** (a fold increase between >1.5 and ≤1.65 is indicated by four stars (****))”.

For `Cc1cn2nc(-c3cc(=O)n4cc(N5CCNCC5)cc(C)c4n3)cc2c(C)n1` [Compound 720, 2-(4,6-dimethylpyrazolo[1,5-a]pyrazin-2-yl)-9-methyl-7-(piperazin-1-yl)-4H-pyrido[1,2-a]pyrimidin-4-one], the melting point is 254 to 264 °C. The EC (1.5-fold increase) in data set [1] was < 0.1 µM. Further, in data set [2], the “EC1.5x for Smn protein expression” value is on record as “**** (an EC1.5x≤0.3 μM is indicated by four stars (****))” and the “maximum fold (Fold) increase” value was “***** (a fold increase >1.65 is indicated by five stars (*****))”.

`COc1ccc(-c2cc(=O)n3cc(N4CCC(N(C)CCO)CC4)cc(C)c3n2)cc1OC` [Compound 446, 2-(3,4-dimethoxyphenyl)-7-{4-[(2-hydroxyethyl)(methyl)amino]piperidin-1-yl}-9-methyl-4H-pyrido[1,2-a]pyrimidin-4-one]: the melting point was 164 to 171 °C. Also, in data set [1], the EC (1.5-fold increase) is < 0.1 µM. Also, in data set [2], the “EC1.5x for Smn protein expression” value was “** (an EC1.5× between >1 μM and ≤3 μM is indicated by two stars (**))”; the “maximum fold (Fold) increase” value was “*** (a fold increase between >1.35 and ≤1.5 is indicated by three stars (***))”.

Molecule `CCN(C)C1CC=C(c2ccc3nc(-c4ccc(OC)c(OC)c4)cc(=O)n3c2)CC1` (centres unmarked) [Compound 368, 2-(3,4-dimethoxyphenyl)-7-{4-[ethyl(methyl)amino]cyclohex-1-en-1-yl}-4H-pyrido[1,2-a]pyrimidin-4-one] gave a melting point of 132 to 134 °C. The EC (1.5-fold increase) in data set [1] was < 0.1 µM. For the same molecule, in data set [2], the “EC1.5x for Smn protein expression” value was “*** (an EC1.5× between >0.3 μM and ≤1 μM is indicated by three stars (***))”; the “maximum fold (Fold) increase” value was “**** (a fold increase between >1.5 and ≤1.65 is indicated by four stars (****))”.

The molecule `COc1ccc(-c2ccc3nc(N4CCNCC4)cc(=O)n3c2)cc1F` [Cpd 220, 7-(3-fluoro-4-methoxyphenyl)-2-(piperazin-1-yl)-4H-pyrido[1,2-a]pyrimidin-4-one] showed a melting point of 202 to 206 °C. In data set [1], the EC (1.5-fold increase) lay within 0.3 to 1 µM. The “maximum fold (Fold) increase” value in data set [2] was “** (a fold increase between >1.2 and ≤1.35 is indicated by two stars (**))”.

Consider `Cc1cc2cc(-c3cc(=O)n4cc(N5CCN[C@@H](C)C5)ccc4n3)oc2c(C)n1` [Compound 488, 2-(5,7-dimethylfuro[2,3-c]pyridin-2-yl)-7-[(3S)-3-methylpiperazin-1-yl]-4H-pyrido[1,2-a]pyrimidin-4-one], for which the melting point was 202 to 204 °C. For the same molecule, the EC (1.5-fold increase) in data set [1] is < 0.1 µM. Also, in data set [2], the “EC1.5x for Smn protein expression” value was “**** (an EC1.5x≤0.3 μM is indicated by four stars (****))”; the “maximum fold (Fold) increase” value is “**** (a fold increase between >1.5 and ≤1.65 is indicated by four stars (****))”.

In the case of `COc1cc(-c2cc(=O)n3cc(N4CCN[C@@H](C)C4)ccc3n2)ccc1F` [Compound 215, 2-(4-fluoro-3-methoxyphenyl)-7-[(3S)-3-methylpiperazin-1-yl]-4H-pyrido[1,2-a]pyrimidin-4-one], the melting point was 130 to 135 °C. Further, the EC (1.5-fold increase) in data set [1] was in the range of 0.3 to 1 µM. In addition, in data set [2], the “maximum fold (Fold) increase” value was “*** (a fold increase between >1.35 and ≤1.5 is indicated by three stars (***))”.

Turning to `COc1ccc(-c2cc(=O)n3cc(C4CCN(C)CC4)cc(C)c3n2)cc1OC` [Compound 252, 2-(3,4-dimethoxyphenyl)-9-methyl-7-(1-methylpiperidin-4-yl)-4H-pyrido[1,2-a]pyrimidin-4-one], the melting point fell in the range of 170 to 174 °C. Further, the EC (1.5-fold increase) in data set [1] is 0.1 to 0.3 µM. Further, in data set [2], the “EC1.5x for Smn protein expression” value is “*** (an EC1.5× between >0.3 μM and ≤1 μM is indicated by three stars (***))”; the “maximum fold (Fold) increase” value was “**** (a fold increase between >1.5 and ≤1.65 is indicated by four stars (****))”.

As for `COc1ccc(-c2cc(=O)n3cc(N4CCC(NC5CC5)CC4)cc(C)c3n2)cc1OC` [Compound 330, 7-[4-(cyclopropylamino)piperidin-1-yl]-2-(3,4-dimethoxyphenyl)-9-methyl-4H-pyrido[1,2-a]pyrimidin-4-one], the melting point was determined as 141 °C. For the same molecule, the EC (1.5-fold increase) in data set [1] is 0.1 to 0.3 µM. In data set [2], the “maximum fold (Fold) increase” value is “** (a fold increase between >1.2 and ≤1.35 is indicated by two stars (**))”.

Consider `CN(C)C1CCN(c2ccc3nc(-c4ccc5c(cnn5C)c4)cc(=O)n3c2)CC1` [Compound 491, 7-[4-(dimethylamino)piperidin-1-yl]-2-(1-methyl-1H-indazol-5-yl)-4H-pyrido[1,2-a]pyrimidin-4-one], for which the melting point lay in the range of 209 to 212 °C. Also, the EC (1.5-fold increase) in data set [1] was in the range of 0.3 to 1 µM. For the same molecule, in data set [2], the “EC1.5x for Smn protein expression” value was “** (an EC1.5× between >1 μM and ≤3 μM is indicated by two stars (**))”; the “maximum fold (Fold) increase” value was “**** (a fold increase between >1.5 and ≤1.65 is indicated by four stars (****))”.
